# In US20150160195A1, “HUMAN LIVER TUMOR CELL LINE AND METHOD OF AGENT SCREENING” (Industrial Technology Research Institute, priority 2013, published 2015):
# What was measured:
# liver cancer = details: phase III of human clinical trials; cited from earlier work
# [1] = test system: human liver tumor cell line ITRI-H16; test: Cell viability of ITRI-H16 cells after 48-hour treatment, Alarmablue measurement assay; details: read-out: half maximal inhibitory concentration (IC50) in the ITRI-H16 cell line
structure (smiles),measurement,setting,value
CNC(=O)c1cc(Oc2ccc(NC(=O)Nc3ccc(Cl)c(C(F)(F)F)c3)cc2)ccn1 [Sorafenib],extension of patient survival time,liver cancer,three-month
same,IC50,[1],~14 µM
